Measured values from publication PMC12260505, “First-in-Human Phase I/IIa Study of the First-in-Class CDK2/4/6 Inhibitor PF-06873600 Alone or with Endocrine Therapy in Patients with Breast Cancer” (Clinical Cancer Research, 2025).

Experiment: Adverse events graded by NCI CTCAE version 4.03, phase I/IIa study
Assay type: in vivo
Experimental: Part 1 included adult patients with HR^+/HER2^− advanced breast cancer or mBC (third- or fourth-line setting), locally recurrent/advanced or metastatic TNBC, or advanced platinum-resistant epithelial ovarian cancer/fallopian tube cancer/primary peritoneal cancer who received oral PF-06873600 at doses of 1 to 50 mg twice daily or oral PF-06873600 plus ET (letrozole or fulvestrant). Primary endpoints for part 1 dose escalation determined safety and tolerability to define dose-limiting toxicities (DLT), estimate the maximum tolerated dose, and select the recommended dose for expansion (RDE). Safety endpoints included adverse events (AE) characterized by type, frequency, severity [as graded by NCI Common Terminology Criteria for Adverse Events (CTCAE) version 4.03], timing, seriousness, and relationship to study therapy. Laboratory abnormalities were characterized by type, frequency, severity (as graded by NCI CTCAE version 4.03), timing, vital sign abnormalities, and heart rate–corrected QT interval (e.g., QTcF). Secondary endpoints included PK, preliminary antitumor activity as assessed using RECIST version 1.1, time-to-event endpoints including objective response rate (ORR), duration of response (DoR), progression-free survival (PFS), time to progression (TTP), and modulation of tumor CDK biomarkers [phosphorylated Rb (pRb), Ki67]. Exploratory endpoints included molecular profiling of tumor and ctDNA and the relationship to clinical outcome.
AEs were graded by NCI CTCAE version 4.03.

[1] = Part 2A 25 mg BID IR + Fulvestrant, N = 45
[2] = Part 2C 25 mg BID IR + Fulvestrant, N = 28

C[C@@]1(O)CCC[C@H]1n1c(=O)c(C(F)F)cc2cnc(NC3CCN(S(C)(=O)=O)CC3)nc21 [PF-06873600]
Treatment-related TEAE, Abdominal pain, Grade 1 [1]: 7 (15.6) n (%) | Treatment-related TEAE, Abdominal pain, Grade 2 [1]: 1 (2.2) n (%) | Treatment-related TEAE, Abdominal pain, Grade 3/4 [1]: 0 n (%) | Treatment-related TEAE, Abdominal pain, Grade 5 [1]: 0 n (%) | Treatment-related TEAE, Abdominal pain, Total [1]: 8 (17.8) n (%) | Treatment-related TEAE, Alopecia, Grade 1 [1]: 7 (15.6) n (%) | Treatment-related TEAE, Alopecia, Grade 2 [1]: 9 (20.0) n (%) | Treatment-related TEAE, Alopecia, Grade 3/4 [1]: 0 n (%) | Treatment-related TEAE, Alopecia, Grade 5 [1]: 0 n (%) | Treatment-related TEAE, Alopecia, Total [1]: 16 (35.6 ) n (%) | Treatment-related TEAE, Anemia, Grade 1 [1]: 3 (6.7) n (%) | Treatment-related TEAE, Anemia, Grade 2 [1]: 10 (22.2 ) n (%) | Treatment-related TEAE, Anemia, Grade 3/4 [1]: 7 (15.6) n (%) | Treatment-related TEAE, Anemia, Grade 5 [1]: 0 n (%) | Treatment-related TEAE, Anemia, Total [1]: 20 (44.4 ) n (%) | Treatment-related TEAE, Any adverse event, Grade 1 [1]: 9 (20.0) n (%) | Treatment-related TEAE, Any adverse event, Grade 2 [1]: 17 (37.8 ) n (%) | Treatment-related TEAE, Any adverse event, Grade 3/4 [1]: 19 (42.2 ) n (%) | Treatment-related TEAE, Any adverse event, Grade 5 [1]: 0 n (%) | Treatment-related TEAE, Any adverse event, Total [1]: 45 (100. 0) n (%) | Treatment-related TEAE, Constipation, Grade 1 [1]: 4 (8.9) n (%) | Treatment-related TEAE, Constipation, Grade 2 [1]: 5 (11.1) n (%) | Treatment-related TEAE, Constipation, Grade 3/4 [1]: 0 n (%) | Treatment-related TEAE, Constipation, Grade 5 [1]: 0 n (%) | Treatment-related TEAE, Constipation, Total [1]: 9 (20.0) n (%) | Treatment-related TEAE, Decreased appetite, Grade 1 [1]: 6 (13.3) n (%) | Treatment-related TEAE, Decreased appetite, Grade 2 [1]: 1 (2.2) n (%) | Treatment-related TEAE, Decreased appetite, Grade 3/4 [1]: 0 n (%) | Treatment-related TEAE, Decreased appetite, Grade 5 [1]: 0 n (%) | Treatment-related TEAE, Decreased appetite, Total [1]: 7 (15.6) n (%) | Treatment-related TEAE, Diarrhea, Grade 1 [1]: 7 (15.6) n (%) | Treatment-related TEAE, Diarrhea, Grade 2 [1]: 1 (2.2) n (%) | Treatment-related TEAE, Diarrhea, Grade 3/4 [1]: 2 (4.4) n (%) | Treatment-related TEAE, Diarrhea, Grade 5 [1]: 0 n (%) | Treatment-related TEAE, Diarrhea, Total [1]: 10 (22.2 ) n (%) | Treatment-related TEAE, Dizziness, Grade 1 [1]: 6 (13.3) n (%) | Treatment-related TEAE, Dizziness, Grade 2 [1]: 2 (4.4) n (%) | Treatment-related TEAE, Dizziness, Grade 3/4 [1]: 0 n (%) | Treatment-related TEAE, Dizziness, Grade 5 [1]: 0 n (%) | Treatment-related TEAE, Dizziness, Total [1]: 8 (17.8) n (%) | Treatment-related TEAE, Fatigue, Grade 1 [1]: 10 (22.2 ) n (%) | Treatment-related TEAE, Fatigue, Grade 2 [1]: 13 (28.9 ) n (%) | Treatment-related TEAE, Fatigue, Grade 3/4 [1]: 5 (11.1) n (%) | Treatment-related TEAE, Fatigue, Grade 5 [1]: 0 n (%) | Treatment-related TEAE, Fatigue, Total [1]: 28 (62.2 ) n (%) | Treatment-related TEAE, Headache, Grade 1 [1]: 12 (26.7 ) n (%) | Treatment-related TEAE, Headache, Grade 2 [1]: 4 (8.9) n (%) | Treatment-related TEAE, Headache, Grade 3/4 [1]: 0 n (%) | Treatment-related TEAE, Headache, Grade 5 [1]: 0 n (%) | Treatment-related TEAE, Headache, Total [1]: 16 (35.6 ) n (%) | Treatment-related TEAE, Leukopenia, Grade 1 [1]: 1 (2.2) n (%) | Treatment-related TEAE, Leukopenia, Grade 2 [1]: 8 (17.8) n (%) | Treatment-related TEAE, Leukopenia, Grade 3/4 [1]: 2 (4.4) n (%) | Treatment-related TEAE, Leukopenia, Grade 5 [1]: 0 n (%) | Treatment-related TEAE, Leukopenia, Total [1]: 11 (24.4 ) n (%) | Treatment-related TEAE, Nausea, Grade 1 [1]: 22 (48.9 ) n (%) | Treatment-related TEAE, Nausea, Grade 2 [1]: 6 (13.3) n (%) | Treatment-related TEAE, Nausea, Grade 3/4 [1]: 1 (2.2) n (%) | Treatment-related TEAE, Nausea, Grade 5 [1]: 0 n (%) | Treatment-related TEAE, Nausea, Total [1]: 29 (64.4 ) n (%) | Treatment-related TEAE, Neutropenia, Grade 1 [1]: 4 (8.9) n (%) | Treatment-related TEAE, Neutropenia, Grade 2 [1]: 5 (11.1) n (%) | Treatment-related TEAE, Neutropenia, Grade 3/4 [1]: 13 (28.9 ) n (%) | Treatment-related TEAE, Neutropenia, Grade 5 [1]: 0 n (%) | Treatment-related TEAE, Neutropenia, Total [1]: 22 (48.9 ) n (%) | Treatment-related TEAE, Thrombocytopenia, Grade 1 [1]: 5 (11.1) n (%) | Treatment-related TEAE, Thrombocytopenia, Grade 2 [1]: 2 (4.4) n (%) | Treatment-related TEAE, Thrombocytopenia, Grade 3/4 [1]: 3 (6.7) n (%) | Treatment-related TEAE, Thrombocytopenia, Grade 5 [1]: 0 n (%) | Treatment-related TEAE, Thrombocytopenia, Total [1]: 10 (22.2 ) n (%) | Treatment-related TEAE, Vomiting, Grade 1 [1]: 12 (26.7 ) n (%) | Treatment-related TEAE, Vomiting, Grade 2 [1]: 3 (6.7) n (%) | Treatment-related TEAE, Vomiting, Grade 3/4 [1]: 1 (2.2) n (%) | Treatment-related TEAE, Vomiting, Grade 5 [1]: 0 n (%) | Treatment-related TEAE, Vomiting, Total [1]: 16 (35.6 ) n (%) | Treatment-related TEAE, Abdominal pain, Grade 1 [2]: 0 n (%) | Treatment-related TEAE, Abdominal pain, Grade 2 [2]: 0 n (%) | Treatment-related TEAE, Abdominal pain, Grade 3/4 [2]: 0 n (%) | Treatment-related TEAE, Abdominal pain, Grade 5 [2]: 0 n (%) | Treatment-related TEAE, Abdominal pain, Total [2]: 0 n (%) | Treatment-related TEAE, Alopecia, Grade 1 [2]: 6 (21.4) n (%) | Treatment-related TEAE, Alopecia, Grade 2 [2]: 2 (7.1) n (%) | Treatment-related TEAE, Alopecia, Grade 3/4 [2]: 0 n (%) | Treatment-related TEAE, Alopecia, Grade 5 [2]: 0 n (%) | Treatment-related TEAE, Alopecia, Total [2]: 8 (28.6) n (%) | Treatment-related TEAE, Anemia, Grade 1 [2]: 4 (14.3) n (%) | Treatment-related TEAE, Anemia, Grade 2 [2]: 3 (10.7) n (%) | Treatment-related TEAE, Anemia, Grade 3/4 [2]: 3 (10.7) n (%) | Treatment-related TEAE, Anemia, Grade 5 [2]: 0 n (%) | Treatment-related TEAE, Anemia, Total [2]: 10 (35.7 ) n (%) | Treatment-related TEAE, Any adverse event, Grade 1 [2]: 7 (25.0) n (%) | Treatment-related TEAE, Any adverse event, Grade 2 [2]: 8 (28.6) n (%) | Treatment-related TEAE, Any adverse event, Grade 3/4 [2]: 8 (28.6) n (%) | Treatment-related TEAE, Any adverse event, Grade 5 [2]: 1 (3.6) n (%) | Treatment-related TEAE, Any adverse event, Total [2]: 24 (85.7 ) n (%) | Treatment-related TEAE, Constipation, Grade 1 [2]: 1 (3.6) n (%) | Treatment-related TEAE, Constipation, Grade 2 [2]: 2 (7.1) n (%) | Treatment-related TEAE, Constipation, Grade 3/4 [2]: 0 n (%) | Treatment-related TEAE, Constipation, Grade 5 [2]: 0 n (%) | Treatment-related TEAE, Constipation, Total [2]: 3 (10.7) n (%) | Treatment-related TEAE, Decreased appetite, Grade 1 [2]: 2 (7.1) n (%) | Treatment-related TEAE, Decreased appetite, Grade 2 [2]: 0 n (%) | Treatment-related TEAE, Decreased appetite, Grade 3/4 [2]: 0 n (%) | Treatment-related TEAE, Decreased appetite, Grade 5 [2]: 0 n (%) | Treatment-related TEAE, Decreased appetite, Total [2]: 2 (7.1) n (%) | Treatment-related TEAE, Diarrhea, Grade 1 [2]: 4 (14.3) n (%) | Treatment-related TEAE, Diarrhea, Grade 2 [2]: 1 (3.6) n (%) | Treatment-related TEAE, Diarrhea, Grade 3/4 [2]: 0 n (%) | Treatment-related TEAE, Diarrhea, Grade 5 [2]: 0 n (%) | Treatment-related TEAE, Diarrhea, Total [2]: 5 (17.9) n (%) | Treatment-related TEAE, Dizziness, Grade 1 [2]: 0 n (%) | Treatment-related TEAE, Dizziness, Grade 2 [2]: 1 (3.6) n (%) | Treatment-related TEAE, Dizziness, Grade 3/4 [2]: 0 n (%) | Treatment-related TEAE, Dizziness, Grade 5 [2]: 0 n (%) | Treatment-related TEAE, Dizziness, Total [2]: 1 (3.6) n (%) | Treatment-related TEAE, Fatigue, Grade 1 [2]: 7 (25.0) n (%) | Treatment-related TEAE, Fatigue, Grade 2 [2]: 0 n (%) | Treatment-related TEAE, Fatigue, Grade 3/4 [2]: 2 (7.1) n (%) | Treatment-related TEAE, Fatigue, Grade 5 [2]: 0 n (%) | Treatment-related TEAE, Fatigue, Total [2]: 9 (32.1) n (%) | Treatment-related TEAE, Headache, Grade 1 [2]: 9 (32.1) n (%) | Treatment-related TEAE, Headache, Grade 2 [2]: 0 n (%)
